Assay results published in patent EP2567959B1, “6-(4-HYDROXY-PHENYL)-3-STYRYL-1H-PYRAZOLO[3,4-B]PYRIDINE-4-CARBOXYLIC ACID AMIDE DERIVATIVES AS KINASE INHIBITORS” (SANOFI, priority 2011, dated 2013).

target: T1, human full-length recombinant PKC βII (Homo sapiens, UniProt P05771); assay: Determination of PKC βII inhibition (Caliper mobility-shift kinase assay, phosphorylation of fluorescein peptide substrate); type: biochemical; settings: final compound concentration 1.14 µM (±0.15 µM); 60 min incubation at 32 °C
T1 construct: Active human full-length recombinant PKC βII; purchased Invitrogen GmbH, Darmstadt, Germany
T1 sequence (P05771 1-673 isoform P05771-2): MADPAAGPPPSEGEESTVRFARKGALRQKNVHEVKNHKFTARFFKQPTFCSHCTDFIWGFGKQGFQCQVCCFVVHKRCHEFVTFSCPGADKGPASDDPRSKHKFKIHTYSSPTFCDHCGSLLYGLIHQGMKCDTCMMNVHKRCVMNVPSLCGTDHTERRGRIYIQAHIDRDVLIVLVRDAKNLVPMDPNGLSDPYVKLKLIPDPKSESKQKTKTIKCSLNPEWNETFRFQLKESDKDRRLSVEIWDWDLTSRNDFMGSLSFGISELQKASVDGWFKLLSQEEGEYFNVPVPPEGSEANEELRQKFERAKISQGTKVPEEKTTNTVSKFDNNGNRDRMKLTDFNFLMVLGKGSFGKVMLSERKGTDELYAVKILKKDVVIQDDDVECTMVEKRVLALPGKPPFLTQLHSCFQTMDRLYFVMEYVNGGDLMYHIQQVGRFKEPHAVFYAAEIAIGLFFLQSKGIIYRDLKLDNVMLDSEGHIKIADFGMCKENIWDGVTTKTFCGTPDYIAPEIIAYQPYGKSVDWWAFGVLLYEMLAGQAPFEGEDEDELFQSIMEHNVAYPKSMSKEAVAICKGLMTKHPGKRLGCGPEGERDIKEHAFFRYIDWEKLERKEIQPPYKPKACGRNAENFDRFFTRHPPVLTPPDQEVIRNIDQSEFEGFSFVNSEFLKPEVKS
Protocol: Determination of PKC βII inhibition
PKC βII inhibition was determined according to the following protocol:
Active human full-length recombinant PKC βII and the peptide substrate, Fluorescein-RFARKGSLRQKNV, were purchased from Invitrogen GmbH, Darmstadt, Germany. Adenosine-5'-triphosphate (ATP), bovine serum albumine (BSA), dimethylsulphoxide (DMSO), 4-(2-hydroxyethyl)piperazine-1-ethanesulfonic acid (Hepes), Triton X-100, 1,2-Dioleoyl-sn-glycerol (DAG), L-α-Phosphatidyl-L-serine (PS), calcium chloride (CaCl2), and Pluronic F-68 were purchased from Sigma-Aldrich, Munich, Germany. Magnesium chloride, 1 M sodium hydroxide solution, 1M hydrochloric acid solution and EDTA were obtained from Merck Biosciences, Darmstadt, Germany.
Test compounds were diluted to three times the test concentration in buffer 1 (30 mM Hepes-NaOH, pH 7.4, 0.01 % Pluronic F-68 and 3 % (v/v) DMSO). The PKC βII enzyme was diluted to a concentration of 30 ng/ml in buffer 2 (30 mM Hepes-NaOH, pH 7.4, 15 mM MgCl2,150 µM CaCl2, 150 µg/ml PS, 60 µg/ml DAG, and 0.045 % (w/v) Triton X-100). The peptide substrate and ATP were diluted to concentrations of 3 µM and 120 µM, respectively, in buffer 2. Two µl of the compound solution were mixed with 2 µl of the diluted enzyme in a 384-well small volume microtiter plate (Greiner, Bio-One, Frickenhausen, Germany), and the kinase reaction was initiated by addition of 2 µl of the solution containing peptide substrate and ATP. After 60 min incubation at 32 °C, the reaction was stopped by addition of 20 µl of a solution containing 130 mM Hepes-NaOH, pH 7.4, 0.0195 % (v/v) Brij-35, 6.5 mM EDTA, 0.13 % chip coating reagent 3 (Caliper Lifescience Inc, Hopkinton, MA) and 6.5 % (v/v) DMSO. Phosphorylation of the substrate peptide was then detected on a Caliper 3000 instrument essentially as described by Pommereau et al (J. Biomol. Screening 2004, 9(5), 409-416). Separation conditions were as follows: Pressure -0.8 psi, upstream voltage - 3000 V, downstream voltage -800 V. Positive controls (buffer 1 instead of compound) and negative controls (buffer 1 instead of compound and buffer 2 instead of kinase solution) were run in parallel on each plate. Fractional turnover (R) was determined as the height of the peak of the phosphorylated peptide product divided by the sum of the unphosphorylated substrate and phosphorylated product peak heights. Percent-inhibition values for the test compounds were determined using the formula % Inhibition = 100*(1-(Rcompound-Rnegative control)/(Rpositive control-Rnegative control). [formula]
In the following table % inhibition values observed with example compounds at a final concentration of 1.14 µM (±0.15 µM) are listed: […]

Row | inhibition at 1.14 µM | SMILES
1 | 97% | O=C(c1cc(-c2ccc(O)cc2)nc2[nH]nc(/C=C/c3ccc(Oc4ccccc4)cc3)c12)N1CCNCC1 [Example 44, {6-(4-hydroxy-phenyl)-3-[(E)-2-(4-phenoxy-phenyl)-vinyl]-1H-pyrazolo[3,4-b]pyridin-4-yl}-piperazin-1-yl-methanone]
2 | 27% | CN(C)C(=O)N1CCN(C(=O)c2cc(-c3ccc(O)cc3)nc3[nH]nc(/C=C/c4ccccc4)c23)CC1 [Example 74, 4-[6-(4-Hydroxy-phenyl)-3-((E)-styryl)-1H-pyrazolo[3,4-b]pyridine-4-carbonyl]-piperazine-1-carboxylic acid dimethylamide]
3 | 87% | COc1ccc(/C=C/c2n[nH]c3nc(-c4ccc(O)cc4)cc(C(=O)N4CCNCC4)c23)c(OC)c1 [Example 43, [3-[(E)-2-(2,4-Dimethoxyphenyl)-vinyl]-6-(4-hydroxy-phenyl)-1H-pyrazolo[3,4-b]pyridin-4-yl]-piperazin-1-yl-methanone]
4 | 94% | CC(C)(CO)C(=O)N1CCN(C(=O)c2cc(-c3ccc(O)cc3)nc3[nH]nc(/C=C/c4ccccc4)c23)CC1 [Example 87, 3-Hydroxy-1-{4-[6-(4-hydroxy-phenyl)-3-((E)-styryl)-1H-pyra-zolo[3,4-b]pyri-dine-4-carbonyl]-piperazin-1-yl}-2,2-dimethyl-propan-1-one]
5 | 97% | O=C(c1cc(-c2ccc(O)cc2)nc2[nH]nc(/C=C/c3cccc(Cl)c3)c12)N1CCNCC1 [Example 48, [3-[(E)-2-(3-Chloro-phenyl)-vinyl]-6-(4-hydroxy-phenyl)-1H-pyrazolo[3,4-b]pyridin-4-yl]-piperazin-1-yl-methanone]
6 | 97% | O=C(c1cc(-c2ccc(O)c(F)c2)nc2[nH]nc(/C=C/c3ccccc3)c12)N1CCNCC1 [Example 12, [6-(3-Fluoro-4-hydroxy-phenyl)-3-((E)-styryl)-1H-pyrazolo[3,4-b]pyridin-4-yl]-piperazin-1-yl-methanone]
7 | 60% | O=C(c1cc(-c2ccc(O)cc2)nc2[nH]nc(/C=C/c3ccccc3C(F)(F)F)c12)N1CCNCC1 [Example 68, {6-(4-Hydroxy-phenyl)-3-[(E)-2-(2-trifluoromethyl-phenyl)-vinyl]-1H-pyrazolo[3,4-b]pyridin-4-yl}-piperazin-1-yl-methanone]
8 | 87% | CC[C@H]1CNCCN1C(=O)c1cc(-c2ccc(O)cc2)nc2[nH]nc(/C=C/c3ccccc3)c12 [Example 10, ((S)-2-Ethyl-piperazin-1-yl)-[6-(4-hydroxy-phenyl)-3-((E)-styryl)-1H-pyrazolo[3,4-b]pyridin-4-yl]-methanone]
9 | 99% | Cc1cc(C)cc(/C=C/c2n[nH]c3nc(-c4ccc(O)cc4)cc(C(=O)N4CCNCC4)c23)c1 [Example 40, [3-[(E)-2-(3,5-Dimethylphenyl)-vinyl]-6-(4-hydroxy-phenyl)-1H-pyrazolo[3,4-b]pyridin-4-yl]-piperazin-1-yl-methanone]
10 | 98% | Cc1cc(/C=C/c2n[nH]c3nc(-c4ccc(O)cc4)cc(C(=O)N4CCNCC4)c23)ccc1O [Example 47, [3-[(E)-2-(4-Hydroxy-3-methyl-phenyl)-vinyl]-6-(4-hydroxy-phenyl)-1H-pyrazolo[3,4-b]pyridin-4-yl]-piperazin-1-yl-methanone]
11 | 89% | COCCC(=O)N1CCN(C(=O)c2cc(-c3ccc(O)cc3)nc3[nH]nc(/C=C/c4ccccc4)c23)CC1 [Example 88, 1-{4-[6-(4-Hydroxy-phenyl)-3-((E)-styryl)-1H-pyrazolo[3,4-b]-pyridine-4-carbonyl]-piperazin-1-yl}-3-methoxy-propan-1-one]
12 | 98% | COc1ccccc1/C=C/c1n[nH]c2nc(-c3ccc(O)cc3)cc(C(=O)N3CCNCC3)c12 [Example 60, {6-(4-hydroxy-phenyl)-3-[(E)-2-(2-methoxy-phenyl)-vinyl]-1H-pyrazolo[3,4-b]pyridin-4-yl}-piperazin-1-yl-methanone]
13 | 98% | C[C@H]1CNCCN1C(=O)c1cc(-c2ccc(O)cc2)nc2[nH]nc(/C=C/c3ccccc3)c12 [Example 6, [6-(4-Hydroxy-phenyl)-3-((E)-styryl)-1H-pyrazolo[3,4-b]pyridin-4-yl]-((S)-2-methyl-piperazin-1-yl)-methanone]
14 | 99% | O=C(c1ccc(/C=C/c2n[nH]c3nc(-c4ccc(O)cc4)cc(C(=O)N4CCNCC4)c23)cc1)N1CCCCC1 [Example 19, (6-(4-Hydroxy-phenyl)-3-{(E)-2-[4-(piperidine-1-carbonyl)-phenyl]-vinyl}-1Hpyrazolo[3,4-b]pyridin-4-yl)-piperazin-1-yl-methanone]
15 | 91% | O=C(c1cc(-c2ccc(O)cc2)nc2[nH]nc(/C=C/c3ccc(F)cc3Cl)c12)N1CCNCC1 [Example 52, [3-[(E)-2-(2-Chloro-4-fluorophenyl)-vinyl]-6-(4-hydroxy-phenyl)-1H-pyrazolo[3,4-b]pyridin-4-yl]-piperazin-1-yl-methanone]
16 | 99% | N#Cc1cccc(/C=C/c2n[nH]c3nc(-c4ccc(O)cc4)cc(C(=O)N4CCNCC4)c23)c1 [Example 25, 3-{(E)-2-[6-(4-Hydroxy-phenyl)-4-(piperazine-1-carbonyl)-1H-pyrazolo[3,4-b]pyridin-3-yl]-vinyl}-benzonitrile]
17 | 90% | O=C(c1cccnc1)N1CCN(C(=O)c2cc(-c3ccc(O)cc3)nc3[nH]nc(/C=C/c4ccccc4)c23)CC1 [Example 83, [6-(4-Hydroxy-phenyl)-3-((E)-styryl)-1H-pyra-zolo[3,4-b]pyri-din-4-yl]-[4-(pyridine-3-carbonyl)-piperazin-1-yl]-methanone]
18 | 99% | CS(=O)(=O)Cc1cccc(/C=C/c2n[nH]c3nc(-c4ccc(O)cc4)cc(C(=O)N4CCNCC4)c23)c1 [Example 15, {6-(4-Hydroxy-phenyl)-3-[(E)-2-(3-methanesulfonylmethyl-phenyl)-vinyl]-1H-pyrazolo[3,4-b]pyridin-4-yl}-piperazin-1-yl-methanone]
19 | 95% | CCc1ccc(/C=C/c2n[nH]c3nc(-c4ccc(O)cc4)cc(C(=O)N4CCNCC4)c23)cc1 [Example 53, [3-[(E)-2-(4-Ethyl-phenyl)-vinyl]-6-(4-hydroxy-phenyl)-1H-pyrazolo[3,4-b]pyridin-4-yl]-piperazin-1-yl-methanone]
20 | 97% | O=C(c1cc(-c2ccc(O)cc2)nc2[nH]nc(/C=C/c3ccccc3)c12)N1CCNC2(CCCC2)C1 [Example 79, (6,9-Diaza-spiro-[4.5]dec-9-yl)-[6-(4-hydroxy-phenyl)-3-((E)-styryl)-1H-pyra-zolo[3,4-b]py-ridin-4-yl]-methanone]
21 | 99% | CN(C)C(=O)c1ccc(/C=C/c2n[nH]c3nc(-c4ccc(O)cc4)cc(C(=O)N4CCNCC4)c23)cc1 [Example 66, 4-{(E)-2-[6-(4-Hydroxy-phenyl)-4-(piperazine-1-carbonyl)-1H-pyrazolo[3,4-b]pyridin-3-yl]-vinyl}-N,N-dimethyl-benzamide]
22 | 98% | CN1Cc2ccc(/C=C/c3n[nH]c4nc(-c5ccc(O)cc5)cc(C(=O)N5CCNCC5)c34)cc2C1=O [Example 35, 6-{(E)-2-[6-(4-Hydroxy-phenyl)-4-(piperazine-1-carbonyl)-1H-pyrazolo[3,4-b]pyridin-3-yl]-vinyl}-2-methyl-2,3-dihydro-isoindol-1-one]
23 | 98% | O=C(c1cc(-c2ccc(O)cc2)nc2[nH]nc(/C=C/c3cccc(N4CCOCC4)c3)c12)N1CCNCC1 [Example 27, {6-(4-Hydroxy-phenyl)-3-[(E)-2-(3-morpholin-4-yl-phenyl)-vinyl]-1H-pyrazolo[3,4-b]pyridin-4-yl}-piperazin-1-yl-methanone]
24 | 97% | O=C(c1cc(-c2ccc(O)cc2)nc2[nH]nc(/C=C/c3cccc(C(F)(F)F)c3)c12)N1CCNCC1 [Example 46, {6-(4-Hydroxy-phenyl)-3-[(E)-2-(3-trifluoromethylphenyl)-vinyl]-1 H-pyrazolo[3,4-b]pyridin-4-yl}-piperazin-1-yl-methanone]
25 | 99% | C[C@H]1CNCCN1C(=O)c1cc(-c2ccc(O)cc2F)nc2[nH]nc(/C=C/c3ccccc3)c12 [Example 11, [6-(2-Fluoro-4-hydroxy-phenyl)-3-((E)-styryl)-1H-pyrazolo[3,4-b]pyridin-4-yl]-((S)-2-methyl-piperazin-1-yl)-methanone]
